Laboratory results from US20240317754A1 (priority 2020, published 2024).
“Also recorded” adds a separate entry of the source. Read-outs that look alike come from different tables or passages of the source.

How the values were obtained:
SARS-CoV replicon = test: microbe, parasite or virus in culture; format: cell-based; conditions: for IC50 / inhibition at 10 µM: Severe acute respiratory syndrome coronavirus, HEK-293T, 60 h
SARS-CoV-2 replicon = test: microbe, parasite or virus in culture; format: cell-based; conditions: HEK293T cells; for antiviral activity relative to GS-441524 / inhibition of SARS-CoV-2 replicon replication: in words; for inhibition at 10 µM / IC50: Severe acute respiratory syndrome coronavirus 2, HEK-293T, 60 h
SARS-CoV-2 (B.1) = test: microbe, parasite or virus in culture; format: cell-based
[1] = PK study in cynomolgus monkeys; format: in vivo
Method: Three male cynomolgus monkeys weighing 3-5 kg were used for the pharmacokinetic study. Compound AVT006 was administered intragastrically with the dose of 10 mg/kg on day 1. After administration, the blood samples for plasma were collected from a jugular vein from each monkey over 48 hours. The plasma samples (1 mL) were obtained at predose, and 0.083, 0.25, 0.5, 1, 2, 4, 8, 24 and 48 h postdose. After recovery for three days, compound AVT006 was administered intravenously with a dose of 5 mg/kg at day 5. The blood samples for plasma were collected from a jugular vein from each monkey over 48 hours. 1 mL plasma samples were obtained at predose, and 0.083, 0.25, 0.5, 1, 2, 4, 8, 24 and 48 h postdose. Samples were treated with anticoagulant EDTA-K2 and centrifuged under 2000 g for 10 min at 4° C. The supernatants (plasma) were collected and stored at −65° C. for future analysis. The drug concentration in each sample was tested by Watson LIMS 7.5 SP1 HPLC/MS. The pharmacokinetic parameters were calculated using WinNonlin 6.3 software.

MHV-A59 = test: In vivo efficacy in murine hepatitis virus (MHV-A59) infected BALB/c mice
From the text: • Mice: SPF-grade male BALB/c mice, 100, weighing 18-22 g. • Operation: The experimental mice were infected with MHV-A59 nasal drops and randomly divided into ten groups (n=10 each).
The mice were monitored daily for disease symptoms, including body weight, clinical symptoms, and death, for 14 days. Record the body weight changes of mice in each treatment group after virus infection (FIG. 4A) and survival curves (FIG. 4B). The fluorescence quantitative PCR method was used to determine the virus titer in mouse liver 72 hours after virus infection (FIG. 4C).

SARS-CoV-2 = test: In vivo efficacy against SARS-CoV-2 in hACE2 humanized mice
[2] = as reported by NIH OpenData Portal; species not printed (context non-human primates); cited from earlier work
[3] = Severe acute respiratory syndrome coronavirus 2, Vero C1008, 48 h
[4] = male, cynomolgus monkey, plasma, IV 5 mg/kg, analyzed ATV006

In the case of `CC(C)C(=O)OC[C@H]1O[C@@](C#N)(c2ccc3c(N)ncnn23)[C@H](O)[C@@H]1O` [ATV006, ((2R,3S,4R,5R)-5-(4-aminopyrrolo[2,1-f][1,2,4]triazin-7-yl)-5-cyano-3,4-dihydroxytetrahydrofuran-2-yl)methyl isobutyrate], the “activity relative to GS-441524” value (SARS-CoV replicon) is reported as “twice that of compound GS-441524”, the IC50 (SARS-CoV replicon) is reported as 570 nM and the inhibition at 10 µM (SARS-CoV replicon) is reported as 99.2%. For the same molecule, the “antiviral activity relative to GS-441524” value (SARS-CoV-2 replicon) was “lower IC50 values and higher antiviral activity”, the “inhibition of SARS-CoV-2 replicon replication” value (SARS-CoV-2 replicon) was “significant inhibitory effects” and the inhibition at 10 µM (SARS-CoV-2 replicon) was 98.6%. For the same molecule, the IC50 (SARS-CoV-2 replicon) was 510 nM, the IC50 (SARS-CoV-2 (B.1); [3]) was 1360 nM and the “metabolism to GS-441524” value ([1]; in words) was “quickly metabolized into the active metabolite GS-441524”. The AUC(0-inf) [1, 4] was 19.6 ± 5.43 ng·h/mL, the AUC(0-t) [1, 4] was 19.4 ± 5.35 ng·h/mL and the Cmax [1, 4] was 132 ± 37.4 ng/mL. The Tmax [1, 4] was 5 min, the half-life [1, 4] was 4.15 ± 0.446 min and the “day after infection on which mice began to die” value (MHV-A59; BALB/c mice, 2 mg/kg IG) was 4 days. The median death rate (MHV-A59; BALB/c mice, 2 mg/kg IG) was 6 days, the mortality rate (MHV-A59; BALB/c mice, 2 mg/kg IG, by day 10 after infection, vs control group p=0.0291) was 100% and the survival (MHV-A59; BALB/c mice, 2 mg/kg IG, in words, 2 mg/kg) was “positive effect in prolonging the survival time of animals; also recorded: increased the survival rate”. For the same molecule, the “death and weight loss of mice” value (MHV-A59; BALB/c mice, ATV006 IG at doses except 2 mg/kg (5-50 mg/kg), 14 days, in words) was “can avoid the death and weight loss of mice at low doses”, the “antiviral activity in vivo compared with GS-441524 and RDV” value (MHV-A59; BALB/c mice, in words) was “better antiviral activity in vivo” and the “replication of the virus in the liver” value (MHV-A59; BALB/c mice, virus titer in liver 72 hours after infection, in words) was “significantly inhibit the replication of the virus in the liver”. The antiviral effect (MHV-A59; mice, medium dose 5 mg/kg-50 mg/kg, in words) was “excellent antiviral effect in a dose-dependent manner”, the “amount of viral genome (N gene) in lung tissue” value (SARS-CoV-2) was “significantly lower than that in the control group” and the “amount of viral subgenome (subgenomic N) in lung tissue” value (SARS-CoV-2) was “significantly lower than that in the control group”.

In the case of `CCCCCCCCC(=O)OC[C@H]1O[C@@](C#N)(c2ccc3c(N)ncnn23)[C@H](O)[C@@H]1O` [ATV010, ((2R,3S,4R,5R)-5-(4-aminopyrrolo[2,1-f][1,2,4]triazin-7-yl)-5-cyano-3,4-dihydroxytetrahydrofuran-2-yl)methyl nonanoate], the “antiviral activity relative to GS-441524” value (SARS-CoV-2 replicon) is reported as “improved”, the inhibition at 10 µM (SARS-CoV-2 replicon) is reported as 99% and the IC50 (SARS-CoV-2 replicon) is reported as 320 nM. For the same molecule, the IC50 (SARS-CoV-2 (B.1); [3]) was 696 nM.

With `CCC(CC)C(=O)OC[C@H]1O[C@@](C#N)(c2ccc3c(N)ncnn23)[C@H](O)[C@@H]1O` [ATV011, ((2R,3S,4R,5R)-5-(4-aminopyrrolo[2,1-f][1,2,4]triazin-7-yl)-5-cyano-3,4-dihydroxytetrahydrofuran-2-yl)methyl 2-ethylbutanoate] the “antiviral activity relative to GS-441524” value (SARS-CoV-2 replicon) was “improved”, the inhibition at 10 µM (SARS-CoV-2 replicon) was 98.9% and the IC50 (SARS-CoV-2 replicon) was 320 nM. The IC50 (SARS-CoV-2 (B.1); [3]) was 2120 nM.

`N#C[C@@]1(c2ccc3c(N)ncnn23)O[C@H](COC(=O)c2ccccc2)[C@@H](O)[C@H]1O` [ATV013, ((2R,3S,4R,5R)-5-(4-aminopyrrolo[2,1-f][1,2,4]triazin-7-yl)-5-cyano-3,4-dihydroxytetrahydrofuran-2-yl)methyl benzoate] gave an inhibition at 10 µM (SARS-CoV-2 replicon) of 97.7%, an IC50 (SARS-CoV-2 replicon) of 500 nM and an IC50 (SARS-CoV-2 (B.1); [3]) of 2260 nM.

In the case of `N#C[C@@]1(c2ccc3c(N)ncnn23)O[C@H](COC(=O)C2CCCCC2)[C@@H](O)[C@H]1O` [ATV014, ((2R,3S,4R,5R)-5-(4-aminopyrrolo[2,1-f][1,2,4]triazin-7-yl)-5-cyano-3,4-dihydroxytetrahydrofuran-2-yl)methyl cyclohexanecarboxylate], the “antiviral activity relative to GS-441524” value (SARS-CoV-2 replicon) is reported as “lower IC50 values and higher antiviral activity”, the “inhibition of SARS-CoV-2 replicon replication” value (SARS-CoV-2 replicon) is reported as “significant inhibitory effects” and the inhibition at 10 µM (SARS-CoV-2 replicon) is reported as 98.2%. The IC50 (SARS-CoV-2 replicon) was 260 nM and the IC50 (SARS-CoV-2 (B.1)) was 331 nM.

In the case of `CC(C)CC(=O)OC[C@H]1O[C@@](C#N)(c2ccc3c(N)ncnn23)[C@H](O)[C@@H]1O` [ATV017, ((2R,3S,4R,5R)-5-(4-aminopyrrolo[2,1-f][1,2,4]triazin-7-yl)-5-cyano-3,4-dihydroxytetrahydrofuran-2-yl)methyl 3-methylbutanoate], the inhibition at 10 µM (SARS-CoV-2 replicon) is reported as 97.2%, the IC50 (SARS-CoV-2 replicon) is reported as 430 nM and the IC50 (SARS-CoV-2 (B.1); [3]) is reported as 2190 nM.

With `CC(C)(C)C(=O)OC[C@H]1O[C@@](C#N)(c2ccc3c(N)ncnn23)[C@H](O)[C@@H]1O` [ATV018, ((2R,3S,4R,5R)-5-(4-aminopyrrolo[2,1-f][1,2,4]triazin-7-yl)-5-cyano-3,4-dihydroxytetrahydrofuran-2-yl)methyl pivalate] the inhibition at 10 µM (SARS-CoV-2 replicon) was 97.5%, the IC50 (SARS-CoV-2 replicon) was 420 nM and the IC50 (SARS-CoV-2 (B.1); [3]) was 938 nM.

`N#C[C@@]1(c2ccc3c(N)ncnn23)O[C@H](CO)[C@@H](O)[C@H]1O` [GS-441524, reference compound] gave an IC50 (SARS-CoV replicon) of 1100 nM, an inhibition at 10 µM (SARS-CoV replicon) of 99.8% and an inhibition at 10 µM (SARS-CoV-2 replicon) of 99.8%. The IC50 (SARS-CoV-2 replicon) was 950 nM, the IC50 (SARS-CoV-2 (B.1)) was 2280 nM and the bioavailability [2] was 8.3%.
